Source: patent US20080026996A1, “Selective Vpac2 Receptor Reptide Agonists” (ELI LILLY AND COMPANY, priority 2004, published 2008)
Read-outs that look alike come from different tables or passages of the source. Where a SMILES comes first, the peptide text is derived from it. Where no end group is shown, it is not given here. [ ]: non-standard residue; d: D form. The star is where a group is joined. hArg = N=C(N)NCCCC[C@H](N)C(=O)O; Hexanoyl = CCCCCC(=O)*; Aib = CC(C)(N)C(=O)O

Legend:
rat VPAC1 receptor = molecular target: T1, rat VPAC1 receptor (Rattus norvegicus, UniProt P30083); assay: DiscoveRx in vitro potency, CHO-PO cells transiently transfected with rat VPAC 1 receptor DNA; format: cell-based; set-up: expressed in transfected cells; host or cells: CHO-PO, transient
T1 sequence (P30083 31-459): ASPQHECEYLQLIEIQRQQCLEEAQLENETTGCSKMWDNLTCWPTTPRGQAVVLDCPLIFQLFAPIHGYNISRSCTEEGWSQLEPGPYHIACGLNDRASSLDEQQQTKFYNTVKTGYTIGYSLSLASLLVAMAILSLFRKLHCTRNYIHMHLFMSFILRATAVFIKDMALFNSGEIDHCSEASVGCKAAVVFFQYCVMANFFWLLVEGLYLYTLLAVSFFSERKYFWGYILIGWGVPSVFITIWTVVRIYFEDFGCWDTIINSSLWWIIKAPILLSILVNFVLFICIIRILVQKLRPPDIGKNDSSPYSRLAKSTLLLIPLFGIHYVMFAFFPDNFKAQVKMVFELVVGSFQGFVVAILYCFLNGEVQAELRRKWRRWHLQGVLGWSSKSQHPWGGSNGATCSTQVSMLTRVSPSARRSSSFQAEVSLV
Experimental: (§1) Also, the cells are washed twice. […] The stimuli are present for 30 minutes. Then, the assay buffer is gently removed.

[1] = Rat serum stability studies (remaining active peptide by DiscoveRx cAMP on CHO-VPAC2 cells); format: in vitro ADME
Method in brief: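 Rat serum, 18 h: +aprotinin aliquot at 4° C, no-aprotinin aliquot at 37° C. Then 30 min RT step, supernatant removed, 1 h shaking at 300 rpm. DiscoveRx cAMP kit on CHO-VPAC2; EC50 from cAMP data vs standards.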

human PAC1 [2] = molecular target: T2, human PAC1 (Homo sapiens, UniProt P41586); assay: Filter binding assay, membranes of cells transiently transfected with human PAC1, 125I-labeled PACAP-27 tracer (Table 2); set-up: expressed in transfected cells; settings: read-out: Human PAC1 Receptor Binding
T2 sequence (P41586 21-468): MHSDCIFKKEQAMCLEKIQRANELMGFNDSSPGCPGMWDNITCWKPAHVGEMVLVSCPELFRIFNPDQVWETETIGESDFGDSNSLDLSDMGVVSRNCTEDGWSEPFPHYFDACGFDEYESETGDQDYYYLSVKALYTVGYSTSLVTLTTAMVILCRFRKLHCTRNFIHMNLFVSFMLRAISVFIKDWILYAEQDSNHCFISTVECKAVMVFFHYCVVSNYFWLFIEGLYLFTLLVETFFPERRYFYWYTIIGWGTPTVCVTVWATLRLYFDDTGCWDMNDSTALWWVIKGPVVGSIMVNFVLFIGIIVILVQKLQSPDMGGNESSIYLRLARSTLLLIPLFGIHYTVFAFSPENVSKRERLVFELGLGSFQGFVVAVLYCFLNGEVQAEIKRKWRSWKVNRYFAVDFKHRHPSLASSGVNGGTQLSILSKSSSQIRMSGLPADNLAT
Method in brief: (§2)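 Scintillation counting of filter-retained radioligand gave the read-out. Compounds competed with the labelled tracer (about 40000 cpm) for 2.5 μg membranes during 1 hour of shaking in HEPES pH 7.4 buffer containing 0.5% BSA.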

human VPAC1 [3] = molecular target: T3, human VPAC1 (Homo sapiens, UniProt P32241); assay: Filter binding assay, membranes of cells transiently transfected with human VPAC1, 125I-labeled VIP tracer (Table 2); set-up: expressed in transfected cells; settings: read-out: Human VPAC1 Receptor Binding
T3 sequence (P32241 31-457): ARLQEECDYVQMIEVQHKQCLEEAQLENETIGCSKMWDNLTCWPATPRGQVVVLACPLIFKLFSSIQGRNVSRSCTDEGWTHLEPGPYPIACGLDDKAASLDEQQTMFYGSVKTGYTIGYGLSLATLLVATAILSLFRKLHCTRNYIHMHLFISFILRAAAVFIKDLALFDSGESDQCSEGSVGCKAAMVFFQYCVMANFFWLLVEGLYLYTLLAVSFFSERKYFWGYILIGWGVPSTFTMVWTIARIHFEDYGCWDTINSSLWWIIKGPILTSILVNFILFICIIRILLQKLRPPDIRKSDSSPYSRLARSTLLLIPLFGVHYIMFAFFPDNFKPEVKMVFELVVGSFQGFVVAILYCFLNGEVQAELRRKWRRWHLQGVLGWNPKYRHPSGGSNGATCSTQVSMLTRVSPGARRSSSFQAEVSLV
Method in brief: as §2

human VPAC2 [4] = molecular target: T4, human VPAC2 (Homo sapiens, UniProt P41587); assay: Filter binding assay, membranes of stable VPAC2 cell line, 125I-labeled VIP tracer (Table 2); settings: read-out: Human VPAC2 Receptor Binding
T4 construct: expressed in transfected cells
T4 sequence (P41587 24-438): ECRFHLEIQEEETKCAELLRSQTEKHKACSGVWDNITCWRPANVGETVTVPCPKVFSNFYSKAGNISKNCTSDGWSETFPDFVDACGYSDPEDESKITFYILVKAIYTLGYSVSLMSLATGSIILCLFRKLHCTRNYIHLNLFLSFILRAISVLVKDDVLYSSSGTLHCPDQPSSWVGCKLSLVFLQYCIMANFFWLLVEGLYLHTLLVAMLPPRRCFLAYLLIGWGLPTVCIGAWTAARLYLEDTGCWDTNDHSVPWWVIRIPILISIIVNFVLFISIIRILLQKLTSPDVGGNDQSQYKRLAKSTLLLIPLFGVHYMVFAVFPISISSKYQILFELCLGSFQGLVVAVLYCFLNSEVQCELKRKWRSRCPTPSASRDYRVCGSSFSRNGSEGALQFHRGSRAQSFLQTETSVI
Method in brief: as §2

human VPAC1 [5] = molecular target: T3, human VPAC1; assay: DiscoveRx cAMP in vitro potency, CHO-PO cells transiently transfected with human VPAC1 receptor; format: cell-based; set-up: expressed in transfected cells; host or cells: CHO-PO, transient (Lipofectamine)
Experimental: (§3) Also, the cells are washed twice. The cells are incubated in assay buffer plus IBMX for 15 minutes at room temperature. […] The stimuli are present for 30 minutes. Then, the assay buffer is gently removed. […] At day 3, the assay described above for the VPAC2 receptor cell line is performed.

human PAC1 [6] = molecular target: T2, human PAC1; assay: DiscoveRx cAMP in vitro potency, CHO-PO cells transiently transfected with human PAC1 receptor; format: cell-based; set-up: expressed in transfected cells; host or cells: CHO-PO, transient (Lipofectamine)
Experimental: as §3

human VPAC2 [7] = molecular target: T4, human VPAC2; assay: Alpha screen cAMP in vitro potency, human VPAC2 receptor; format: cell-based; settings: cAMP generation; single result from two analyses performed in a single run; read-out: Human VPAC2 Receptor: Alpha Screen EC50
Method in brief: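 Cells were detached with enzyme-free dissociation buffer, washed into stimulation buffer and used at 50,000 cells per data point. Stimuli and AlphaScreen acceptor beads were added for 60 minutes, then lysis buffer with donor beads for 60 to 120 minutes; the AlphaScreen signal reports intracellular cAMP.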

human VPAC2 [8] = molecular target: T4, human VPAC2; assay: DiscoveRx cAMP in vitro potency, CHO-S cell line stably expressing human VPAC2 receptor; format: cell-based; settings: cAMP generation; mean of two independent runs
Experimental: as §3

rat VPAC2 receptor = molecular target: T5, rat VPAC2 receptor (Rattus norvegicus, UniProt P35000); assay: DiscoveRx in vitro potency, CHO-PO cells transiently transfected with rat VPAC 2 receptor DNA; format: cell-based; set-up: expressed in transfected cells; host or cells: CHO-PO, transient
T5 sequence (P35000 23-437): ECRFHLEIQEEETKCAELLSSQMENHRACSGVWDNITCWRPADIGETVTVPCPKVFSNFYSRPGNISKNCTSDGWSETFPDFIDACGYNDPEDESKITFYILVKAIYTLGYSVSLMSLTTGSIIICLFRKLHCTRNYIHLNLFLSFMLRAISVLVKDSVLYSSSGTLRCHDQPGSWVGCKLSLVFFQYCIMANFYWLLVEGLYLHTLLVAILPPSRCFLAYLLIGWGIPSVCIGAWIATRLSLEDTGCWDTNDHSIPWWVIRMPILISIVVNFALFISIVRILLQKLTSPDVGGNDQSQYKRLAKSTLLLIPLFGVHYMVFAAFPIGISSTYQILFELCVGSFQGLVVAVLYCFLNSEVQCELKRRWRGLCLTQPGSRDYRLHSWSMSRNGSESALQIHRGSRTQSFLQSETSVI
Experimental: as §1

[9] = cAMP generation, mean of two independent runs, read-out: Human VPAC1 Receptor: DiscoveRx EC50
[10] = cAMP generation, mean of two independent runs, read-out: Human PAC1 Receptor: DiscoveRx EC50

Molecule	EC50 (rat VPAC1 receptor)	Rat Serum Stability (estimated purity in % after 18 hours) [1]	IC50 (human PAC1 [2])	IC50 (human VPAC1 [3])	IC50 (human VPAC2 [4])	EC50 (human VPAC2 [7])	EC50 (human VPAC2 [8])	EC50 (human VPAC1 [5]; [9])	further results
Hexanoyl-HSDAVFTDNYTRL[Aib]KQVAAK[Aib]YLQSIKNKRYGGPSSGAPPPS [Agonist P244]	127 nM	30.64%	> 25000 nM	> 3000 nM	26.9 nM	–	–	–	Rat Serum Stability (Estimated purity in % after 72 hours) [1]: 6.2%
HSDVVFTDNYTRLRKQVAAKKYLQSIKNKRYGGPSSGAPPPS [Agonist P53]	–	–	–	–	–	–	–	–	EC50 (human VPAC1 [5]): 118 nM; EC50 (human PAC1 [6]): > 1000 nM
Hexanoyl-HSEAVFTENYTRLR[Aib]QVAA[Aib]KYLQSIKNKRYGGPSSGAPPPS [Agonist P314]	29.2 nM	8.44%	> 25000 nM	> 3000 nM	0.57 nM	0.22 nM	–	–	–
HSDAVVTDNYTRLRKQVAAKKYLQSIKNKRYGGPSSGAPPPS [Agonist P66]	–	–	–	–	–	–	> 1000 nM	< 1000 nM	–
HSDAVFTDNYTRLRKQVAAKKYLQSIRNKRYGGPSSGAPPPS [Agonist P23]	–	–	–	150 nM	0.92 nM	–	1.41 nM	0.9 nM	–
HSDAVLTDNYTRLRKQVAAKKYLQSIKNKRYGGPSSGAPPPS [Agonist P64]	–	–	–	–	–	–	> 1000 nM	221 nM	–
Hexanoyl-HSDAVFTDNYTRLR[Aib]QIAA[Aib]KYLQSIKNKRYGGPSSGAPPPS [Agonist P322]	0.5 nM	42.18%	> 25000 nM	> 3000 nM	0.4 nM	0.22 nM	–	–	EC50 (rat VPAC2 receptor): 0.04 nM; Rat Serum Stability (Estimated purity in % after 72 hours) [1]: 1.3%
CCCCCC(=O)N[C@@H](Cc1c[nH]cn1)C(=O)N[C@@H](CO)C(=O)N[C@@H](CC(=O)O)C(=O)N[C@@H](C)C(=O)N[C@H](C(=O)N[C@@H](Cc1ccccc1)C(=O)N[C@H](C(=O)N[C@@H](CC(=O)O)C(=O)N[C@@H](CC(N)=O)C(=O)N[C@@H](Cc1ccc(O)cc1)C(=O)N[C@H](C(=O)N[C@@H](CCCCNC(=N)N)C(=O)N[C@@H](CC(C)C)C(=O)N[C@@H](CCCNC(=N)N)C(=O)NC(C)(C)C(=O)N[C@@H](CCC(N)=O)C(=O)N[C@H](C(=O)N[C@@H](C)C(=O)N[C@@H](C)C(=O)NC(C)(C)C(=O)N[C@@H](CCCCN)C(=O)N[C@@H](Cc1ccc(O)cc1)C(=O)N[C@@H](CC(C)C)C(=O)N[C@@H](CCC(N)=O)C(=O)N[C@@H](CO)C(=O)N[C@H](C(=O)N[C@@H](CCCCNC(=N)N)C(=O)N[C@@H](CCCCNC(=N)N)C(=O)NCC(=O)NCC(=O)N1CCC[C@H]1C(=O)N[C@@H](CO)C(=O)N[C@@H](CO)C(=O)NCC(=O)N[C@@H](C)C(=O)N1CCC[C@H]1C(=O)N1CCC[C@H]1C(=O)N1CCC[C@H]1C(=O)N[C@@H](CS)C(N)=O)[C@@H](C)CC)C(C)C)[C@@H](C)O)[C@@H](C)O)C(C)C [Agonist P333] (Hexanoyl-HSDAVFTDNYT[hArg]LR[Aib]QVAA[Aib]KYLQSI[hArg][hArg]GGPSSGAPPPC-NH2)	1.37 nM	40.90%	–	> 3000 nM	9.71 nM	0.75 nM	–	–	EC50 (rat VPAC2 receptor): 0.13 nM; Rat Serum Stability (Estimated purity in % after 72 hours) [1]: 61.2%
H-HSDLVFTDNYTRLRKQVAAKKYLQSIKNKRYGGPSSGAPPPS [Agonist P55]	–	–	–	–	–	–	–	134 nM	EC50 (human PAC1 [6]; [10]): > 1000 nM
H-HSDAVTTDNYTRLRKQVAAKKYLQSIKNKRYGGPSSGAPPPS [Agonist P65]	–	–	–	–	–	–	> 1000 nM	> 1000 nM	EC50 (human PAC1 [6]; [10]): 0.7 nM
HSDAVITDNYTRLRKQVAAKKYLQSIKNKRYGGPSSGAPPPS [Agonist P63]	–	–	–	–	–	–	> 1000 nM	> 1000 nM	–
H-HSDAVFTDNYTRLRKQVAAKKYLQSI[hArg]NKRYGGPSSGAPPPS [Agonist P22]	–	–	–	123 nM	0.87 nM	–	–	0.9 nM	–
Hexanoyl-HSDAVFTDNYTRLLAKVAAKKYLQSIKNKRYGGPSSGAPPPS [Agonist P135]	0.02 nM	–	748 nM	251 nM	0.43 nM	0.18 nM	–	–	EC50 (rat VPAC2 receptor): 0.05 nM
